Source: patent US6872833B2, “Adenosine receptor ligands” (Hoffmann-La Roche Inc., priority 2003, dated 2005)

Key:
[1] = molecular target: T1, human adenosine A1 receptor (Homo sapiens, UniProt P30542); assay: [3H]-DPCPX binding assay, human adenosine A1 receptor (CHO cell membranes, SPA); conditions: selectivity of hA2A versus hA1 binding
T1 construct: expressed in transfected cells; host or cells: CHO cells, semliki forest virus expression system; washed membranes
T1 sequence (P30542 1-326): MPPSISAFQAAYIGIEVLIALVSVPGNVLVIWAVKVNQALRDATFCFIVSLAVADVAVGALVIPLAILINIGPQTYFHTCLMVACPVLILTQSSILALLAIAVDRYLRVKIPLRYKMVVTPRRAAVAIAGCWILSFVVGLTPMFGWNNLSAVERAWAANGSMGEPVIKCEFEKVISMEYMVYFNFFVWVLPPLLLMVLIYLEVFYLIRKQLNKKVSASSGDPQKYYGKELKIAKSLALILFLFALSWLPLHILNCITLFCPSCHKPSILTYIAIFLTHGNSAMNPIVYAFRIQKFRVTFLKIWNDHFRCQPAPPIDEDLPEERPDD
Description: Human Adenosine A1 Receptor
(§1) The human adenosine A1 receptor was recombinantly expressed in Chinese hamster ovary (CHO) cells using the semliki forest virus expression system. Cells were harvested, washed twice by centrifugation, homogenized and again washed by centrifugation. The final washed membrane pellet was suspended in a Tris (50 mM) buffer containing 120 mM NaCl, 5 mM KCl, 2 mM CaCl2 and 10 mM MgCl2 (pH 7.4) (buffer A). The [^3H]-DPCPX (([propyl-^3H]8-cyclopentyl-1,3-dipropyxanthine); 0.6 nM) binding assay was carried out in 96-well plates in the presence of 2.5 μg of membrane protein, 0.5 mg of Ysi-poly-1-lysine SPA beads and 0.1 U adenosine deaminase in a final volume of 200 μl of buffer A. Non-specific binding was defined using xanthine amine congener (XAC; 2 μM). Compounds were tested at 10 concentrations from 10 μM-0.3 nM. All assays were conducted in duplicate and repeated at least two times. Assay plates were incubated for 1 hour at room temperature before centrifugation and then bound ligand was determined using a Packard Topcount scintillation counter. IC50 values were calculated using a non-linear curve fitting program and Ki values calculated using the Cheng-Prussoff equation.

[2] = molecular target: T2, human adenosine A2A receptor (Homo sapiens, UniProt P29274); assay: [3H]-SCH-58261 binding assay, human adenosine A2A receptor (CHO cell membranes, SPA); conditions: recombinant human A2A receptor in CHO membranes, [3H]-SCH-58261 1 nM; read-out: hA2 (pKi) (converted)
T2 construct: expressed in transfected cells; host or cells: CHO cells, semliki forest virus expression system; washed membranes
Description: Human Adenosine A2A Receptor
as §1, with “A2A” for “A1”, “[^3H]-SCH-58261 (Dionisotti et al., 1997, Br J Pharmacol 121, 353; 1” for “[^3H]-DPCPX (([propyl-^3H]8-cyclopentyl-1,3-dipropyxanthine); 0.6”, “ligand” for “ligand was”

T2 sequence (P29274 whole entry): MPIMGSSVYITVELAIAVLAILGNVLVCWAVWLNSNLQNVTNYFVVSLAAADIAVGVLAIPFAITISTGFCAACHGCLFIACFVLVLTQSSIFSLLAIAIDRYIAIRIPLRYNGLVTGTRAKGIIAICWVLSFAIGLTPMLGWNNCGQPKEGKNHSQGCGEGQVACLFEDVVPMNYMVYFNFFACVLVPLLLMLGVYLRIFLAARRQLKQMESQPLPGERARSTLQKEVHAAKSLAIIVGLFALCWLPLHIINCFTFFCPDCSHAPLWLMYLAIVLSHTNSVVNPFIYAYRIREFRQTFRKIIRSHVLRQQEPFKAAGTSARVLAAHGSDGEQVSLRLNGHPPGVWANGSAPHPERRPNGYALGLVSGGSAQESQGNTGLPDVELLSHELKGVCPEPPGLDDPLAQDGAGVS

Q: Which results are given for `COc1ccc(C2COCCO2)c2sc(NC(=O)c3ccnc(C4=CCOCC4)c3)nc12` (racemic) [Example 5, (±)-2-(3,6-Dihydro-2H-pyran-4-yl)-N-(7-[1,4]dioxan-2-yl-4-methoxy-benzothiazol-2-yl)-isonicotinamide]?
A: Selectivity to hA1 [1]: 1421; Ki [2]: 1.45 nM

Q: For `COc1ccc(C2COCCO2)c2sc(NC(=O)c3ccnc(C4CCOCC4)c3)nc12` (racemic) [Example 6, (±)-N-(7-[1,4]Dioxan-2-yl-4-methoxy-benzothiazol-2-yl)-2-(tetrahydro-pyran-4-yl)-isonicotinamide], which “Selectivity to hA1” value [1] is on record?
A: 1582

Q: What about the Ki [2] of the same compound?
A: 1.32 nM

Q: `COc1cc(C(=O)Nc2nc3c(OC)ccc(C4COCCO4)c3s2)ccn1` (single isomer, unassigned; (+)) [Example 14, (+)-N-(7-[1,4]Dioxan-2-yl-4-methoxy-benzothiazol-2-yl)-2-methoxy-isonicotinamide] was tested. Which “Selectivity to hA1” value [1] did it give?
A: 1828

Q: What about the Ki [2] of the same compound?
A: 1.2 nM

Q: How did the “Selectivity to hA1” value [1] turn out when `COc1ccc(C2COCCO2)c2sc(NC(=O)c3ccnc(C)c3)nc12` (single isomer, unassigned; (+)) [Example 15, (+)-N-(7-[1,4]Dioxan-2-yl-4-methoxy-benzothiazol-2-yl)-2-methyl-isonicotinamide] was run?
A: 1758

Q: And the Ki [2]?
A: 0.955 nM

Q: Which results are given for `COc1ccc(C2COCCO2)c2sc(NC(=O)c3ccc(F)cc3)nc12` (single isomer, unassigned; (+)) [Example 16, (+)-N-(7-[1,4]Dioxan-2-yl-4-methoxy-benzothiazol-2-yl)-4-fluoro-benzamide]?
A: Selectivity to hA1 [1]: 1005; Ki [2]: 0.832 nM

Q: Which “Selectivity to hA1” value [1] does the source give for `COc1ccc(C2COCCO2)c2sc(NC(=O)c3ccnc(N4CCOCC4)c3)nc12` (single isomer, unassigned; (+)) [Example 17, (+)-N-(7-[1,4]Dioxan-2-yl-4-methoxy-benzothiazol-2-yl)-2-morpholin-4-yl-isonicotinamide] here?
A: 3874

Q: And the Ki [2]?
A: 0.676 nM

Q: `COc1ccc(C2COCCO2)c2sc(NC(=O)c3ccnc(N4CCC4)c3)nc12` (single isomer, unassigned; (+)) [Example 18, (+)-2-Azetidin-1-yl-N-(7-[1,4]dioxan-2-yl-4-methoxy-benzothiazol-2-yl)-isonicotinamide] was tested. Which “Selectivity to hA1” value [1] did it give?
A: 7378

Q: What about the Ki [2] of the same compound?
A: 0.977 nM

Q: Which “Selectivity to hA1” value [1] does the source give for `COc1ccc(C2COCCO2)c2sc(NC(=O)c3ccnc(N4CCC(O)CC4)c3)nc12` (single isomer, unassigned; (+)) [Example 29, (+)-4-Hydroxy-3,4,5,6-tetrahydro-2H-[1,2′]bipyridinyl-4′-carboxylic acid (7-[1,4]dioxan-2-yl-4-methoxy-benzothiazol-2-yl)-amide] here?
A: 2850

Q: What about the Ki [2] of the same compound?
A: 1.07 nM

Q: How did the “Selectivity to hA1” value [1] turn out when `COc1ccc(C2COCCO2)c2sc(NC(=O)c3ccnc(N4CC(F)C4)c3)nc12` (single isomer, unassigned; (+)) [Example 30, (+)-N-(7-[1,4]Dioxan-2-yl-4-methoxy-benzothiazol-2-yl)-2-(3-fluoro-azetidin-1-yl)-isonicotinamide] was run?
A: 6138

Q: What about the Ki [2] of the same compound?
A: 0.891 nM

Q: Which results are given for `CCOC1CN(c2cc(C(=O)Nc3nc4c(OC)ccc(C5COCCO5)c4s3)ccn2)C1` (single isomer, unassigned; (+)) [Example 31, (+)-N-(7-[1,4]Dioxan-2-yl-4-methoxy-benzothiazol-2-yl)-2-(3-ethoxy-azetidin-1-yl)-isonicotinamide]?
A: Selectivity to hA1 [1]: 2718; Ki [2]: 1.23 nM

Q: For `COc1ccc(C2COCCO2)c2sc(NC(=O)c3ccnc(N4CC(OC)C4)c3)nc12` (single isomer, unassigned; (+)) [Example 32, (+)-N-(7-[1,4]Dioxan-2-yl-4-methoxy-benzothiazol-2-yl)-2-(3-methoxy-azetidin-1-yl)-isonicotinamide], which “Selectivity to hA1” value [1] is on record?
A: 5404

Q: What about the Ki [2] of the same compound?
A: 0.646 nM

Q: What does the source list for `COc1ccc(C(=O)Nc2nc3c(OC)ccc(C4COCCO4)c3s2)cc1` (single isomer, unassigned; (+)) [Example 33, (+)-N-(7-[1,4]Dioxan-2-yl-4-methoxy-benzothiazol-2-yl)-4-methoxy-benzamide]?
A: Selectivity to hA1 [1]: 1238; Ki [2]: 0.708 nM

Q: For `COc1ccc(C2COCCO2)c2sc(NC(=O)c3ccc(C)cc3)nc12` (single isomer, unassigned; (+)) [Example 34, (+)-N-(7-[1,4]Dioxan-2-yl-4-methoxy-benzothiazol-2-yl)-4-methyl-benzamide], which “Selectivity to hA1” value [1] is on record?
A: 4503

Q: What about the Ki [2] of the same compound?
A: 0.417 nM

Q: Which results are given for `COc1ccc(C2COCCO2)c2sc(NC(=O)c3ccc4c(c3)OCO4)nc12` (single isomer, unassigned; (+)) [Example 36, (+)-Benzo[1,3]dioxole-5-carboxylic acid (7-[1,4]dioxan-2-yl-4-methoxy-benzothiazol-2-yl)-amide]?
A: Selectivity to hA1 [1]: 1411; Ki [2]: 0.537 nM

Q: `COc1cccc(C(=O)Nc2nc3c(OC)ccc(C4COCCO4)c3s2)c1` (single isomer, unassigned; (+)) [Example 37, (+)-N-(7-[1,4]Dioxan-2-yl-4-methoxy-benzothiazol-2-yl)-3-methoxy-benzamide] was tested. Which “Selectivity to hA1” value [1] did it give?
A: 10082

Q: And the Ki [2]?
A: 0.724 nM

Q: Which “Selectivity to hA1” value [1] does the source give for `COc1ccc(C2COCCO2)c2sc(NC(=O)c3cccc(F)c3)nc12` (single isomer, unassigned; (+)) [Example 39, (+)-N-(7-[1,4]Dioxan-2-yl-4-methoxy-benzothiazol-2-yl)-3-fluoro-benzamide] here?
A: 674

Q: What about the Ki [2] of the same compound?
A: 1.07 nM

Q: `COc1ccc(C2COCCO2)c2sc(NC(=O)c3ccnc(N4CC(O)C4)c3)nc12` (single isomer, unassigned; (+)) [Example 49, (+)-N-(7-[1,4]Dioxan-2-yl-4-methoxy-benzothiazol-2-yl)-2-(3-hydroxy-azetidin-1-yl)-isonicotinamide] was tested. Which “Selectivity to hA1” value [1] did it give?
A: 2319

Q: What about the Ki [2] of the same compound?
A: 0.851 nM

Q: What does the source list for `COc1ccc(C2COCCO2)c2sc(NC(=O)c3ccnc(OCCN4CCOCC4)c3)nc12` (single isomer, unassigned; (+)) [Example 52, (+)-N-(7-[1,4]Dioxan-2-yl-4-methoxy-benzothiazol-2-y)-2-(2-morpholin-4-yl-ethoxy)-isonicotinamide]?
A: Selectivity to hA1 [1]: 3141; Ki [2]: 0.501 nM

Q: For `COc1cncc(C(=O)Nc2nc3c(OC)ccc(C4COCCO4)c3s2)c1` (single isomer, unassigned; (+)) [Example 53, (+)-N-(7-[1,4]Dioxan-2-yl-4-methoxy-benzothiazol-2-yl)-5-methoxy-nicotinamide], which “Selectivity to hA1” value [1] is on record?
A: 8832

Q: And the Ki [2]?
A: 0.832 nM
